Data: patent US8343961B2, “Substituted heterocyclic compounds” (ArQule, Inc., priority 2009, dated 2013)

Experiments:
EphA8 = target: T1, EphA8 (Homo sapiens, UniProt P29322); test: EphA8 Kinase Activity Assay; format: biochemical; conditions: read-out: EphA8, % INH, at 30 uM
T1 sequence (P29322 28-1005): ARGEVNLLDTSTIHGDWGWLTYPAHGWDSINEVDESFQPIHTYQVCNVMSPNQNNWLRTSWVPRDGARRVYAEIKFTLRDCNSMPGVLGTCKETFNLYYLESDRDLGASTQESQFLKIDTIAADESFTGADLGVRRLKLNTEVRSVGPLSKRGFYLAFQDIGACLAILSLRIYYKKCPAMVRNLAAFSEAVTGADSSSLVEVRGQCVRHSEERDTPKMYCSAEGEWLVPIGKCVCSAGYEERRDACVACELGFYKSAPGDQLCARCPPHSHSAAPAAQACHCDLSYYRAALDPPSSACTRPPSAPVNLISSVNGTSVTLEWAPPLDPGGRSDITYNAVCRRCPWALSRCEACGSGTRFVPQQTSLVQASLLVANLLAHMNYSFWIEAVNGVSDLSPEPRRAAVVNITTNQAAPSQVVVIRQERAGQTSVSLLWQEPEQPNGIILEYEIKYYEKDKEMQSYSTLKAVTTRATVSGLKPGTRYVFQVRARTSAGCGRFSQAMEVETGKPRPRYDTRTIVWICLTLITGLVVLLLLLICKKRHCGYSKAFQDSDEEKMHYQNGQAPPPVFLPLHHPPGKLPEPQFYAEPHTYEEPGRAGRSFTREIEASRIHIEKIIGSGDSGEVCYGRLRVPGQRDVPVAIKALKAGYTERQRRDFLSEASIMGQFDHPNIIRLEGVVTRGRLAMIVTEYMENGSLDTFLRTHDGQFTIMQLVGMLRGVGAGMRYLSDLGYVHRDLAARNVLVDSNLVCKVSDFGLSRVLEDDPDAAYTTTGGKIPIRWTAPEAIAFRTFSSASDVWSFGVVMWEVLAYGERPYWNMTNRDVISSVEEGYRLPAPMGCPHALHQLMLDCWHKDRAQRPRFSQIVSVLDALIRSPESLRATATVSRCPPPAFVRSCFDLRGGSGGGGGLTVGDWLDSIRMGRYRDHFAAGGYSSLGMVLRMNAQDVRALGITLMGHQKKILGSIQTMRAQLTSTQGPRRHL
Procedure: Nunc Maxisorb plates are coated with streptavidin by overnight incubation with 100 μL per well of 1 μg/ml Streptavidin in DPBS. Prior to the start of the experiment, the plates are washed with TBST (3×200 μL) and blocked for at least 1 hour by adding 150 μL of 5% BSA/TBST. The plates are washed with TBST (3×200 μL/well) and left dry immediately before the capture step.
The test articles and control (Staurosporine) are prepared using the following assay buffer @ 3× desired final concentration (50 mM Tris-HCl, 0.02 mg/ml BSA, 10 mM MgCl2, 0.1 mM Na3VO4, 1 mM EGTA, 12.5 μM ATP, 0.01% NP-40, 1 mM DTT in 10% glycerol/water). In a reaction plate are added rapidly 20 μl test article (or control) and 20 μl EphA8 (0.12 ng/μl final concentration). The plate is incubated for 15 minutes. To the reaction plate is added 20 μl of Pyk-2 (0.75 ng/μl final concentration). The plate is incubated at room temperature for one hour. From the reaction plate, 50 μl is transferred to the streptavidin coated plate. The capture plate is incubated at room temperature for 30 minutes, then washed 6× with TBST. To the capture plate is added 100 μL/well of Cell Signaling anti-phospho tyrosine at a dilution of 1:3000 in 2% BSA/TBST. The plate is incubated for one hour at room temperature then washed 6× with TBST. To the capture plate is added 100 μL/well of Alkaline Phosphatase Tagged Goat anti Mouse Antibody at a dilution of 1:4000 in 2% BSA/TBST. The plate is incubated for one hour at room temperature then washed 6× with TBST. The fluorescent readout is initiated by the addition of 100 μl/well of Attophos reagent (6 mg/10 mL). The reading is done on the Perkin Elmer Envision system.

RET kinase = RET kinase (Homo sapiens, UniProt P07949); test: RET Kinase Activity Assay; format: biochemical; conditions: read-out: Ret, % INH, at 30 uM
Outline: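 RET […] was preincubated with compound for 15 min, then phosphorylated biotinylated Pyk-2 substrate for 1 h at room temperature with 75 μM ATP and 10 mM MgCl2. Product was captured on streptavidin plates and detected with anti-phosphotyrosine, an AP-tagged secondary antibody and Attophos fluorescence.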

Sequence of RET kinase (P07949 29-1114): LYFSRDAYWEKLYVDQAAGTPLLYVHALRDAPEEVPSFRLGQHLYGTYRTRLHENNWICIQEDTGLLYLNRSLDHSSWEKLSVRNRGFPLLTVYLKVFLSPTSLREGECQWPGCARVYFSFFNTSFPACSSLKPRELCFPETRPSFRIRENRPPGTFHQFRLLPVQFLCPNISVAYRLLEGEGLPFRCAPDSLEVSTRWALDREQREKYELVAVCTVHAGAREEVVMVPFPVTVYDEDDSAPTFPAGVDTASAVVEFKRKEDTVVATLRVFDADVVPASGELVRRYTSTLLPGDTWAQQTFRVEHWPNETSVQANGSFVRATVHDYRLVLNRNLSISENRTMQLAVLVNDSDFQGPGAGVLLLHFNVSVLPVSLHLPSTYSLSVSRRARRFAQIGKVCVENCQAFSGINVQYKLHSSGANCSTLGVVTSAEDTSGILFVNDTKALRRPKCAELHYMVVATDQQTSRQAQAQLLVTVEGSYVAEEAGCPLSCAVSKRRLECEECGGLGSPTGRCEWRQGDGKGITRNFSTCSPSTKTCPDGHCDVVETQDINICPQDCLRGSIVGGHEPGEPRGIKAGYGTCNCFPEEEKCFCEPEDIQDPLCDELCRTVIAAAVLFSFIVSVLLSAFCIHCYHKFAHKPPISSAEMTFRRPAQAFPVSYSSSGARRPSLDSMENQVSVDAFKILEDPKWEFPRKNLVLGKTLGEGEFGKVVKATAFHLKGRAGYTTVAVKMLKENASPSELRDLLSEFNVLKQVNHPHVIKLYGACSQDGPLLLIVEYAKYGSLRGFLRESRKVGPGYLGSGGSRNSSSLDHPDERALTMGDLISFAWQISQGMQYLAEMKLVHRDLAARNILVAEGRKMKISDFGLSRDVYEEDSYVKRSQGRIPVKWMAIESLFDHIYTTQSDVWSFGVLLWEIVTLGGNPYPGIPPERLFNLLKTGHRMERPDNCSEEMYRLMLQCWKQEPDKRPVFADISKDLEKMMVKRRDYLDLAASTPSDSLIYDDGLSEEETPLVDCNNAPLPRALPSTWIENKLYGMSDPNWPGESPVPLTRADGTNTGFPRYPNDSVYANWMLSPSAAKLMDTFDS

Compound	inhibition at 30 µM (EphA8) [%]	inhibition at 30 µM (RET kinase) [%]
Nc1nc(N2CCN(Cc3cccc(Cl)c3)c3ccccc3C2)c2cn[nH]c2n1 [Compound 25, 4-[1-(3-chlorobenzyl)-1,2,3,5-tetrahydro-4H-1,4-benzodiazepin-4-yl]-1H-pyrazolo[3,4-d]pyrimidin-6-amine]	< 50	< 50
Nc1nc(N2CCN(Cc3cccc(Cl)c3)c3ccccc3C2)c2nc[nH]c2n1 [Compound 24, 6-[1-(3-chlorobenzyl)-1,2,3,5-tetrahydro-4H-1,4-benzodiazepin-4-yl]-9H-purin-2-amine]	50 to 79	50 to 79
COc1cccc(CN2CCN(c3nc(N)nc4[nH]ncc34)Cc3ccccc32)c1 [Compound 1, 4-[1-(3-methoxybenzyl)-1,2,3,5-tetrahydro-4H-1,4-benzodiazepin-4-yl]-1H-pyrazolo[3,4-d]pyrimidin-6-amine]	50 to 79	50 to 79
Nc1nc(N2CCN(Cc3ccc(Cl)c(Cl)c3)c3ccccc3C2)c2nc[nH]c2n1 [Compound 42, 6-[1-(3,4-dichlorobenzyl)-1,2,3,5-tetrahydro-4H-1,4-benzodiazepin-4-yl]-9H-purin-2-amine]	< 50	< 50
CC(C)(C)c1ccc(CN2CCN(c3nc(N)nc4[nH]cnc34)Cc3ccccc32)cc1 [Compound 29, 6-[1-(4-tert-butylbenzyl)-1,2,3,5-tetrahydro-4H-1,4-benzodiazepin-4-yl]-9H-purin-2-amine]	50 to 79	< 50
COc1ccccc1CN1CCN(c2nc(N)nc3[nH]cnc23)Cc2ccccc21 [Compound 9, 6-[1-(2-methoxybenzyl)-1,2,3,5-tetrahydro-4H-1,4-benzodiazepin-4-yl]-9H-purin-2-amine]	< 50	50 to 79
